{
  "source": "paper PMC9283466",
  "about": "“In silico identification of two peptides with antibacterial activity against multidrug-resistant Staphylococcus aureus” (NPJ Biofilms and Microbiomes, 2022)",
  "key": {"[1]": {"system": "MRSA USA300 infection in G. mellonella", "test": "In vivo efficacy, G. mellonella MRSA USA300 infection model", "parameters": "species or system Galleria mellonella", "settings": "MRSA USA300 LD; for survival rate higher than the control group: peptides at 1x MIC; for increase in survival versus untreated control group / survival rate: peptides at 3x MIC", "description": "All procedures of larvae rearing, injection and G. mellonella killing assays were conducted using validated methods. In each assay, ten larvae weighing between 280–300 mg each were randomly selected. Larvae with the previous melanisation of the cuticle were excluded from the experiments. All experiments were designed in at least four experimental and biological replicates.\nTo determine the LD50 and LD of S. aureus MRSA USA300 in G. mellonella, an inoculum of 10 µl of MRSA USA300 suspension in PBS 1X (10^3 to 10^6 CFU/larvae) was injected into the larvae haemocoel using insulin syringes (Becton Dickinson, USA). Larvae inoculated with PBS and larvae not inoculated were used as negative controls.\nThe efficacy of the peptides HG2 and HG4 to control MRSA USA300 infection in vivo, was evaluated following the protocol by ref. [43]. The groups of G. mellonella larvae were infected with the predetermined lethal dose of MRSA USA300. After 30 min of the larvae injection with the bacteria, the peptides were injected at 1x MIC and 3x MIC concentrations respectively. Larvae injected with PBS solution, and HG2 or HG4 peptide solution (1x MIC or 3x MIC) alone were used as negative controls. Injected larvae were maintained at 37 °C in the dark and their survival was monitored and analyzed as above."}, "[2]": {"system": "P. aeruginosa (CF) AMT0060", "test": "microbe, parasite or virus in culture", "type": "cell-based, Pseudomonas aeruginosa", "settings": "CF) AMT0060", "description": "(§1) To determine the antimicrobial activity of the new antimicrobial peptides, HG2 and HG4, their minimum inhibitory concentrations (MICs) were determined by broth microdilution method[51] in cation adjusted Mueller Hinton broth (MHB) following the International Organisation for Standardisation (ISO) 20776-1 standard for MIC testing using a final bacterial inoculum of 5 × 10^5 CFU/ml[52]. […] The peptides dissolved in sterile distilled water were added to bacteria culture and incubated overnight at appropriate conditions. The MICs of the peptides and comparator antibiotics were recorded after 18–24 h. The minimum bactericidal concentrations (MBCs) were also determined and were taken as the lowest concentration of the antimicrobial that prevented the growth of bacterial cells after the subculture of cells (from MIC treatment) onto antibiotic-free media."}, "[3]": {"system": "P. aeruginosa (CF) LES400", "test": "microbe, parasite or virus in culture", "type": "cell-based, Pseudomonas aeruginosa", "settings": "CF) LES400", "description": "as §1"}, "P. aeruginosa (CF) C3719": {"system": "P. aeruginosa (CF) C3719", "test": "microbe, parasite or virus in culture", "type": "cell-based, Pseudomonas aeruginosa", "settings": "CF) C3719", "description": "as §1"}, "P. aeruginosa PA01": {"system": "P. aeruginosa PA01", "test": "microbe, parasite or virus in culture", "type": "cell-based, Pseudomonas aeruginosa", "description": "as §1"}, "MRSA USA300 cells": {"system": "MRSA USA300 cells", "test": "Time-kill kinetics", "type": "cell-based, Staphylococcus aureus", "settings": "3x MIC; for reduction in viable cells (time-kill): within the first 10 min, logarithmic-phase MRSA USA300; for time to complete cell death: no recovery observed after 24 h", "description": "The bactericidal activity of HG2, HG4 and comparator antimicrobial compounds was assessed using exponential-phase cultures[14] of MRSA USA300 grown in MHB (1 × 10^6-8 CFU/ml). […] Samples were taken at different time points, serially diluted and inoculated onto MH agar plates using the spread plate technique. After overnight incubation, the colony-forming units per millilitre of cell culture (CFU/ml) was calculated. Experiments were performed in quadruplicates."}, "[4]": {"system": "S. aureus USA300 BAA-1717", "test": "microbe, parasite or virus in culture", "type": "cell-based, Staphylococcus aureus", "settings": "USA300", "description": "as §1"}, "S. aureus EMRSA-15": {"system": "S. aureus EMRSA-15", "test": "microbe, parasite or virus in culture", "type": "cell-based, Staphylococcus aureus", "settings": "EMRSA-15", "description": "as §1"}, "S. aureus ATCC 33591": {"system": "S. aureus ATCC 33591", "test": "microbe, parasite or virus in culture", "type": "cell-based, Staphylococcus aureus", "settings": "ATCC 33591", "description": "as §1"}, "[5]": {"system": "BEAS-2B (normal airway epithelial cells)", "test": "Cytotoxicity, resazurin cell viability", "type": "cell-based, human", "settings": "48 h", "description": "(§2) The toxicity of HG2 and HG4 was tested by a well-known method[60] using the following cell types: BEAS-2B (normal airway epithelial cells, ATCC CRL-9609), IMR-90 (normal fibroblasts, ATCC CCL-186) and HepG2 (liver cell line, ATCC HB-8065). BEAS-2B, IMR-90 and HepG2 cells were cultured in Dulbecco’s modified essential medium (DMEM) supplemented with 10% fetal calf serum (FCS), 1% L-glutamine and 1% antibiotics (all from Invitrogen). Cells were routinely grown onto 25 cm^2 flasks maintained in a 5% CO2 incubator at 37 °C. Briefly, cells grown on 25 cm^2 flasks were detached using trypsin-EDTA solution (Thermofisher) and seeded into 96-well cell culture plates (Greiner Bio-one) at ~10^4 cells per well (counted using Mallasez’s chamber). The cells were grown at 37 °C in a 5% CO2 incubator until they reached confluence (~48–72 h of seeding). Wells were then aspirated and increasing concentrations of HG2 or HG4 were added to the cells and incubated for a further 48 h at 37 °C in a 5% CO2 incubator. The wells were then emptied, and cell viability was evaluated using a resazurin based in vitro toxicity assay kit (Sigma-Aldrich) following the manufacturer’s instructions. Briefly, the resazurin stock solution was diluted at 1:100 in sterile PBS containing calcium and magnesium (PBS^++, pH 7.4) and emptied wells were filled with 100 µl of the diluted resazurin solution. After 4 h incubation at 37 °C with the peptide-treated cells, fluorescence intensity was measured using a microplate reader (excitation wavelength of 530 nm/emission wavelength of 590 nm). The fluorescence values were normalised by the controls and expressed as the percentage of cell viability. The IC50 values of HG2 or HG4 on cell viability (i.e. the concentration of peptides causing a reduction of 50% of the cell viability) were calculated using GraphPad® Prism 7 software."}, "HepG2 (liver cell line)": {"system": "HepG2 (liver cell line)", "test": "Cytotoxicity, resazurin cell viability", "type": "cell-based, human", "settings": "48 h", "description": "as §2"}, "[6]": {"system": "IMR-90 (normal fibroblasts)", "test": "Cytotoxicity, resazurin cell viability", "type": "cell-based, human", "settings": "48 h", "description": "as §2"}},
  "note": "Bridge positions count the residues as written; N and C are the ends. Peptide text beside a SMILES is read from it.",
  "data": [
    {"smiles": "CC[C@H](C)[C@H](NC(=O)[C@H](CC(C)C)NC(=O)[C@H](CC(C)C)NC(=O)[C@H](CC(C)C)NC(=O)[C@H](CCCCN)NC(=O)[C@H](CCCCN)NC(=O)[C@@H](N)CCSC)C(=O)N[C@@H](CC(C)C)C(=O)N[C@@H](Cc1ccccc1)C(=O)N[C@H]1CSSC[C@@H](C(=O)N[C@@H](CCCCN)C(=O)N[C@@H](CCCCN)C(=O)N[C@@H](C)C(=O)N2CCC[C@H]2C(N)=O)NC(=O)CNC(=O)[C@H](C)NC(=O)[C@H](CC(C)C)NC(=O)[C@H](C)NC(=O)[C@H](CC(C)C)NC(=O)[C@H](C)NC(=O)[C@H](CC(C)C)NC1=O", "note": "[HG2] (H-MKKLLLILFCLALALAGCKKAP-NH2; disulfide 10-18; N-terminus assumed)", "values": [
      {"measurement": "survival rate higher than the control group", "setting": "[1]", "value": "~ 20%"},
      {"measurement": "increase in survival versus untreated control group", "setting": "[1]", "value": 4.6, "unit": "fold"},
      {"measurement": "survival rate", "setting": "[1]", "value": 78, "unit": "%"},
      {"measurement": "MIC", "setting": "[2]", "value": 256, "unit": "µg/mL"},
      {"measurement": "MIC", "setting": "[3]", "value": 64, "unit": "µg/mL"},
      {"measurement": "MIC", "setting": "P. aeruginosa (CF) C3719", "value": 64, "unit": "µg/mL"},
      {"measurement": "MIC", "setting": "P. aeruginosa PA01", "value": ">512", "unit": "µg/mL"},
      {"measurement": "reduction in viable cells (time-kill)", "setting": "MRSA USA300 cells", "value": "> 3", "unit": "log10 CFU/ml"},
      {"measurement": "time to complete cell death", "setting": "MRSA USA300 cells", "value": "≤ 10", "unit": "min"},
      {"measurement": "MIC", "setting": "[4]", "value": 16, "unit": "µg/mL"},
      {"measurement": "MIC", "setting": "S. aureus EMRSA-15", "value": 32, "unit": "µg/mL"},
      {"measurement": "MIC", "setting": "S. aureus ATCC 33591", "value": 64, "unit": "µg/mL"},
      {"measurement": "IC50 (cell viability)", "setting": "[5]", "value": "120 ± 25", "unit": "µg/mL"},
      {"measurement": "IC50 (cell viability)", "setting": "HepG2 (liver cell line)", "value": "359 ± 76", "unit": "µg/mL"},
      {"measurement": "IC50 (cell viability)", "setting": "[6]", "value": "96 ± 21", "unit": "µg/mL"}
    ]},
    {"smiles": "CC[C@H](C)[C@H](NC(=O)[C@H](CC(C)C)NC(=O)[C@H](CC(C)C)NC(=O)[C@H](C)NC(=O)CNC(=O)CNC(=O)[C@@H](NC(=O)[C@@H](NC(=O)[C@H](CC(C)C)NC(=O)[C@H](C)NC(=O)[C@H](CC(C)C)NC(=O)CNC(=O)[C@H](CC(C)C)NC(=O)[C@@H](N)C(C)C)[C@@H](C)CC)C(C)C)C(=O)N[C@@H](CCCCN)C(=O)N[C@@H](CCCCN)C(=O)N[C@@H](CCCCN)C(=O)N[C@@H](CCC(N)=O)C(=O)N[C@@H](C)C(=O)N[C@@H](CCCCN)C(=O)N[C@@H](CO)C(N)=O", "note": "[HG4] (H-VLGLALIVGGALLIKKKQAKS-NH2; N-terminus and C-terminus assumed)", "values": [
      {"measurement": "survival rate higher than the control group", "setting": "[1]", "value": "~ 20%"},
      {"measurement": "increase in survival versus untreated control group", "setting": "[1]", "value": 4.4, "unit": "fold"},
      {"measurement": "survival rate", "setting": "[1]", "value": 75, "unit": "%"},
      {"measurement": "MIC", "setting": "[2]", "value": 256, "unit": "µg/mL"},
      {"measurement": "MIC", "setting": "[3]", "value": 128, "unit": "µg/mL"},
      {"measurement": "MIC", "setting": "P. aeruginosa (CF) C3719", "value": 128, "unit": "µg/mL"},
      {"measurement": "MIC", "setting": "P. aeruginosa PA01", "value": ">512", "unit": "µg/mL"},
      {"measurement": "reduction in viable cells (time-kill)", "setting": "MRSA USA300 cells", "value": "> 6", "unit": "log10 CFU/ml"},
      {"measurement": "time to complete cell death", "setting": "MRSA USA300 cells", "value": "≤ 10", "unit": "min"},
      {"measurement": "MIC", "setting": "[4]", "value": 32, "unit": "µg/mL"},
      {"measurement": "MIC", "setting": "S. aureus EMRSA-15", "value": 32, "unit": "µg/mL"},
      {"measurement": "MIC", "setting": "S. aureus ATCC 33591", "value": 32, "unit": "µg/mL"},
      {"measurement": "IC50 (cell viability)", "setting": "[5]", "value": "> 1000", "unit": "µg/mL"},
      {"measurement": "IC50 (cell viability)", "setting": "HepG2 (liver cell line)", "value": "> 1000", "unit": "µg/mL"},
      {"measurement": "IC50 (cell viability)", "setting": "[6]", "value": "294 ± 42", "unit": "µg/mL"}
    ]}
  ]
}
